Experimental data: patent US9521845B2, “Beta-lactones as antibacterial agents” (LUDWIG-MAXIMILIANS-UNIVERSITÄT-MÜNCHEN, priority 2008, dated 2016)

Key:
[1] = tested on: haemolysis abilities of Staphylococcus aureus; assay: Blood agar plate-based haemolysis assay; type: cell-based
Protocol: FIG. 3: Blood agar plate-based assay illustrating that beta-lactones have an effect on the haemolysis abilities of Staphylococcus aureus. 2.5 μL of S. aureus LB dilution (OD600=0.13 corresponding to approx. 1×10^8 cfu/ml) and 2.5 μL DMSO/lactone in DMSO were applied on Whatman Cards placed on 5% sheep blood agar plates (Heipha Diagnostika, Eppelheim, Germany) and incubated at 37° C. over night. A) Direct comparison of beta-lactones as shown in FIG. 2 at a total amount of 250 nmol applied on Whatman Cards. B) Dose down with beta-lactone compounds D3, E2 and G2 at applied concentrations of 100 mM, 50 mM, 25 mM, 12.5 mM, 6.25 mM and 0 mM (corresponding to total amounts of 250 nmol, 125 nmol, 62.5 nmol, 31.3 nmol, 15.6 nmol and 0 nmol, respectively).
2.5 μl, of S. aureus LB dilution (OD600 0.13 corresponding to approx. 1×10^8 cfu/ml) and 2.5 μL DMSO/beta-lactone in DMSO were applied on Whatman Cards placed on 5% sheep blood agar plates (Heipha Diagnostika, Eppelheim, Germany) and incubated at 37° C. over night. FIG. 3A directly compares the β-lactones at a total amount of 250 nmol applied on Whatman Cards. […] For D3 almost no haemolysis is observed down to a total amount of 125 nmol lactone. FIG. 5 illustrates the haemolytic activity of beta-lactone compounds D3, E2 and G2 plotted against the total amount of the respective beta-lactone, whereby a haemolysis zone size of 1.5 mm was set as 100% haemolytic activity. The data shown in FIG. 5 has been corroborated by further experimental testing.
Haemolysis was tested on blood agar plates (5% sheep blood; Heipha Diagnostika, Eppelheim, Germany). Sterile circles of Whatman cards (No. Y) with 5 mm diameter were placed on agar plates and inoculated with 2.5 μL of the corresponding beta-lactone/DMSO and 2.5 μL stationary phase culture of S. aureus diluted to […]. The plates were incubated over night at 37° C. and the diameters of the zones around the bacterial colonies were precisely measured using a vernier caliper.

[2] = tested on: proteolysis abilities of Staphylococcus aureus; assay: Milk agar plate-based proteolysis assay; type: cell-based
Protocol: FIG. 6: Milk agar plate-based assay illustrating that beta-lactones have an effect on the proteolysis abilities of Staphylococcus aureus. 2.5 μL of S. aureus LB dilution (OD600=0.13 corresponding to approx. 1×10^8 cfu/ml) and 2.5 μL DMSO/beta-lactone in DMSO were applied on Whatman Cards placed on 1% skim milk LB agar plates and incubated at 37° C. over night. A) Direct comparison of beta-lactones as shown in FIG. 2 at a total amount of 250 nmol applied on Whatman Cards. B) Dose down with beta-lactones D3, E2 and G2 at applied concentrations of 100 mM, 50 mM, 25 mM, 12.5 mM, 6.25 mM and 0 mM (corresponding to total amounts of 250 nmol, 125 nmol, 62.5 nmol, 31.3 nmol, 15.6 nmol and 0 nmol, respectively). C) Proteolysis zone size plotted against the total amount of the respective beta-lactone.
2.5 μL of S. aureus LB dilution (OD600=0.13 corresponding to approx. 1×10^8 cfu/ml) and 2.5 μL DMSO/beta-lactone in DMSO were applied on Whatman Cards placed on 1% skim milk LB agar plates and incubated at 37° C. over night. FIG. 6A directly compares the β-lactones at a total amount of 250 nmol applied on Whatman Cards. […] For D3 and E2 almost no proteolysis is observed down to a total amount of 125 nmol of the respective beta-lactone. FIG. 6C illustrates that the proteolysis zone size plotted against the total amount of beta-lactone visualizes the strong effects particularly of D3 and E2.

[3] = biological target: T1, Aldehyde dehydrogenase B (ADB) (Escherichia coli, UniProt P37685); assay: ABPP labeling of E. coli cytosol; type: binding; conditions: 100 nM probe concentration, no other off targets
T1 construct: endogenous in cells; host or cells: Escherichia coli K12 lysate, cytosol fraction
Protocol: To estimate the strength of probe interactions with proteins in the proteome, we compared the reactivity profiles of selected beta-lactones across a broad concentration range from 10 μM to 5 nM.
Proteome samples were adjusted to a final concentration of 1 mg protein/mL by dilution in PBS prior to probe labeling. Experiments for visualization by 1D SDS-PAGE were carried out in 43 μL total volume and those for affinity enrichment in 1892 μL total volume, such that once CC reagents were added, the total reaction volume was 50 μL and 2 mL, respectively. Reactions were initiated by addition of the probe and allowed to incubate for 60 min at room temperature. For heat controls the proteome was denatured with 1 μL of 43% SDS at 95° C. for 6 min and cooled to room temperature before the probe was applied. Following incubation, reporter tagged-azide reagents (13 μM rhodamine-azide for analytical or 20 μM rhodamine-biotin-azide for preparative scale) were added followed by 1 mM TCEP and 100 μM ligand. Samples were gently vortexed and the cycloaddition initiated by the addition of 1 mM CuSO4. The reactions were incubated at room temperature for 1 h (Speers, J. Amer. Chem. Soc. 125 (2003), 4686).

ClpP = biological target: T2, ClpP (Staphylococcus aureus, UniProt Q2G036); assay: In vivo labelling of the proteome of S. aureus; type: cell-based
T2 construct: endogenous in cells
T2 sequence (Q2G036 1-195): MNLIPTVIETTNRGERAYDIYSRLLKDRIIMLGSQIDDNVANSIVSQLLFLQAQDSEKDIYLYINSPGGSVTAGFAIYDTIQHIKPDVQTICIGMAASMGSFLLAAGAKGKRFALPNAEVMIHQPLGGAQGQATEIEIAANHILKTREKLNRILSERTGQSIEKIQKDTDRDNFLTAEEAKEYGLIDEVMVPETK
Protocol: FIG. 16: In vivo labelling of the proteome of S. aureus with beta-lactones. Probes were applied at a certain concentration to approx. 2×10^9 cfu of stationary phase S. aureus in 100 μL PBS and incubated for 2 h. Excess probe (beta-lactone) was removed by washing the cells 3× with 1 mL PBS each. Then the cells were lysed by sonication. ClpP has been identified by mass spectrometry from preparative SDS gels after workup and tryptic digestion. B) In vivo dose down of beta-lactones D3, E2 and G2 with S. aureus indicates strong labeling by beta-lactone D3. C) Increase of selectivity at 8.0 μM concentration.
This example relates to the in vivo labelling of the proteome of S. aureus with β-lactones. The beta-lactones were applied at a certain concentration to approx. 2×10^9 cfu of stationary phase S. aureus in 100 μL PBS and incubated for 2 h. Excess beta-lactone was removed by washing the cells 3× with 1 mL PBS each. Then the cells were lysed by sonication. […] ClpP has been identified by mass spectrometry from preparative SDS gels after workup and tryptic digestion.

T1 sequence (P37685 whole entry): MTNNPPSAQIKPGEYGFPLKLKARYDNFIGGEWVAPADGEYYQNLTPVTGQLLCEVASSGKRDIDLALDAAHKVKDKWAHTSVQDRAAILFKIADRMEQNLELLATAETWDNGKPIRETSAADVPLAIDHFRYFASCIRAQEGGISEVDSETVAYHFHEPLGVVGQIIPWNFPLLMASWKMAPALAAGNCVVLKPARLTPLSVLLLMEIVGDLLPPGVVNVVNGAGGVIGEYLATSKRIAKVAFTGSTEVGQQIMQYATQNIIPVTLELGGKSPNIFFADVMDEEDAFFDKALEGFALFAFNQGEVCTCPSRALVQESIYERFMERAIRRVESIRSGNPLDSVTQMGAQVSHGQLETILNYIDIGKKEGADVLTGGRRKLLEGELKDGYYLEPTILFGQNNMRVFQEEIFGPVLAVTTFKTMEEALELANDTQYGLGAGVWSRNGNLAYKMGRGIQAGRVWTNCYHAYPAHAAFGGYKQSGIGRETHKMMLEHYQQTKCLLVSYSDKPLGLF

## C#CCCCC1OC(=O)C1CCCCCCCC=C (stereo not drawn) [D3, trans-3-(8-nonen-1-yl)-4-(4-pentyn-1-yl)oxetan-2-one]
[1]; FIG. 5 dose down
  potency ranking in haemolysis dose down (E2, G2, D3): most active
[1]; dose down 250-15.6 nmol
  total amount down to which almost no haemolysis is observed: 125 nmol
[1]; total amount of 250 nmol applied on Whatman Cards, 5% sheep blood agar, 37° C. over night
  haemolytic activity of S. aureus: strongly reduce
[2]; dose down 250-15.6 nmol
  total amount down to which almost no proteolysis is observed: 125 nmol
[2]; total amount of 250 nmol applied on Whatman Cards, 1% skim milk LB agar, 37° C. over night
  proteolytic activity of S. aureus: strongly reduce
[3]
  ADB labeling preference: strong preference
ClpP; 8.0 μM concentration
  ClpP labelling: still labelled
  off-targets (selectivity): almost no off-targets are visible
ClpP; stationary phase S. aureus, 2 h, dose down of D3, E2, G2
  ClpP labelling in in vivo dose down: strong labelling
